From patent publication US20240196932A1, “NOVEL USE” (DSM IP Assets B.V., priority 2021, published 2024)

Test system: rumen liquor
Assay: In vitro test for methane production (modified Hohenheim Forage value Test, HFT)
Assay type: cell-based
Settings: for Total methane change [% vs. control]: TMR feed, 8 hours at 39° C, average of four to eight experiments
Experimental: In vitro test for methane production: A modified version of the “Hohenheim Forage value Test (HFT)” was used for testing the effect of specific compounds on the rumen functions mimicked by this in-vitro system.
Principle: Feed is gadded into a syringe with a composition of rumen liquor and an appropriate mixture of buffers. The solution is incubated at 39° C. After 8 hours the quantity (and composition) of gas phase produced is measured and put into a formula for conversion.
Sample weighing: The feed stuff (i.e. TMR (44% concentrate, 6% hay, 37% maize silage and 13% grass silage) is sieved to 1 mm and weighed exactly into 64 syringes. 4 of these syringes are the substrate controls, which display the gas production without the effect of the tested compounds. The remaining syringes contain the test substances, by groups of 4 syringes.
The components are mixed in a Woulff bottle in following order: • 711 ml water • 0.18 ml trace element solution • 355.5 ml buffer solution • 355.5 ml mass element solution • The completed solution is warmed up to 39° C.followed by the addition of 1.83 ml sodium salt solution and the addition of reduction solution at 36° C. The rumen liquor is added, when the indicator turns colourless.
Extraction of the rumen liquor: 750 ml of rumen liquor are added to approximately 1,400 ml of medium solution under continued agitation and CO2-gassing.
Filling the syringes, incubation and determining gas volumes and VFA values: The diluted rumen fluid (24 ml) is added to the glass syringe. The syringes are then incubated for 8 hours at 39° C.under gentle agitation. After 8 hours, the volume of gas produced is measured, and the percentage of methane in the gas phase is determined by gas chromatography.
The food fermented was artificial TMR (44% concentrate, 6% hay, 37% maize silage and 13% grass silage). Gossypol was obtained from Sigma-Aldrich (G8761), and used at a concentration as outlined in table 1. 3-Nitrooxy-propanol (3-NOP) was used at the concentration as outlined in table 1.

For Cc1cc2c(C(C)C)c(O)c(O)c(C=O)c2c(O)c1-c1c(C)cc2c(C(C)C)c(O)c(O)c(C=O)c2c1O (racemic) [gossypol, Gossypol], the “Total methane change [% vs. control]” value (gossypol 5 μM, listed as prints 2 g/animal/day) was −1 % vs. control, the “Total methane change [% vs. control]” value (gossypol 10 μM, listed as prints 4.3 g/animal/day) was −11 % vs. control and the “Total methane change [% vs. control]” value (gossypol 20 μM, listed as prints 8.6 g/animal/day) was −15 % vs. control. For the same compound, the “Total methane change [% vs. control]” value (gossypol 100 μM, listed as prints 17.3 g/animal/day) was −69 % vs. control and the methane reduction (gossypol concentrations of at least 7.5 g gossypol/animal/day) was “Clear effects”.
